Measured values published in patent publication US7205317B2, “4[piperidin-4-yliden-(3-carbamoylpheny)methyl]benzamide derivatives and their use for the treatment of pain spinal injuries or gastrointestinal disorders” (AstraZeneca AB, priority 2001, dated 2007).

Tests used:
[1] = molecular target: T1, cloned human δ receptor (HDELTA) (Homo sapiens, UniProt P41143); test: Binding assay, displacement of radioligand on membranes of 293S cells expressing cloned human δ receptor; settings: 293S cell membranes
T1 construct: expressed in transfected cells; host or cells: human 293S (HEK-293S) cells, geneticin-selected
T1 sequence (P41143 whole entry): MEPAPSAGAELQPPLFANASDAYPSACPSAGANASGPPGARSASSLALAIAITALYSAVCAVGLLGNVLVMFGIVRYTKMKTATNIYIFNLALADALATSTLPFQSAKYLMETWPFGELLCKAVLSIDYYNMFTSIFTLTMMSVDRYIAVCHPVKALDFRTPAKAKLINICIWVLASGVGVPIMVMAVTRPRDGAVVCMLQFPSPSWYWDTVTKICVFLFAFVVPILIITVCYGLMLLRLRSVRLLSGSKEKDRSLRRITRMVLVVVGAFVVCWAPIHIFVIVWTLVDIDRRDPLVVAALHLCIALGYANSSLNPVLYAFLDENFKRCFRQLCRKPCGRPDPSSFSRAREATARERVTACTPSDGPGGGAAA

[2] = molecular target: T1, cloned human δ receptor (HDELTA); test: GTP[γ]35S binding functional assay, membranes from HEK-293S cells expressing cloned human opioid receptors; format: biochemical
Experimental: (§1) • A. Human 293S cells expressing cloned human μ, δ, and κ receptors and neomycin resistance were grown in suspension at 37° C. and 5% CO2 in shaker flasks containing calcium-free DMEM 10% FBS, 5% BCS, 0.1% Pluronic F-68, and 600 μg/ml geneticin. • B. Mouse and rat brains were weighed and rinsed in ice-cold PBS (containing 2.5 mM EDTA, pH 7.4). The brains were homogenized with a polytron for 15 sec (mouse) or 30 sec (rat) in ice-cold lysis buffer (50 mM Tris, pH 7.0, 2.5 mM EDTA, with phenylmethylsulfonyl fluoride added just prior use to […] from a 0.5M stock in DMSO:ethanol). Membrane Preparation
Cells were pelleted and resuspended in lysis buffer (50 mM Tris, pH 7.0, 2.5 mM EDTA, with PMSF added just prior to use to 0.1 mM from a 0.1 M stock in ethanol), incubated on ice for 15 min, then homogenized with a polytron for 30 sec. The suspension was spun at 1000 g (max) for 10 min at 4° C. The supernatant was saved on ice and the pellets resuspended and spun as before. The supernatants from both spins were combined and spun at 46,000 g (max) for 30 min. The pellets were resuspended in cold Tris buffer (50 mM Tris/Cl, pH 7.0) and spun again. The final pellets were resuspended in membrane buffer (50 mM Tris, 0.32 M sucrose, pH 7.0). Aliquots (1 ml) in polypropylene tubes were frozen in dry ice/ethanol and stored at −70° C. until use. The protein concentrations were determined by a modified Lowry assay with sodium dodecyl sulfate.
(§2) The agonist activity of the compounds is measured by determining the degree to which the compounds receptor complex activates the binding of GTP to G-proteins to which the receptors are coupled. In the GTP binding assay, GTP[γ]^35S is combined with test compounds and membranes from HEK-293S cells expressing the cloned human opioid receptors or from homogenised rat and mouse brain. Agonists stimulate GTP[γ]^35S binding in these membranes. The EC50 and Emax values of compounds are determined from dose-response curves. Right shifts of the dose response curve by the delta antagonist naltrindole are performed to verify that agonist activity is mediated through delta receptors.

[3] = molecular target: T2, delta receptors, rat brain membranes (Rattus norvegicus, UniProt P33533); test: GTP[γ]35S binding functional assay, homogenised rat brain; format: biochemical
T2 construct: from tissue; host or cells: rat brain homogenate
T2 sequence (P33533 whole entry): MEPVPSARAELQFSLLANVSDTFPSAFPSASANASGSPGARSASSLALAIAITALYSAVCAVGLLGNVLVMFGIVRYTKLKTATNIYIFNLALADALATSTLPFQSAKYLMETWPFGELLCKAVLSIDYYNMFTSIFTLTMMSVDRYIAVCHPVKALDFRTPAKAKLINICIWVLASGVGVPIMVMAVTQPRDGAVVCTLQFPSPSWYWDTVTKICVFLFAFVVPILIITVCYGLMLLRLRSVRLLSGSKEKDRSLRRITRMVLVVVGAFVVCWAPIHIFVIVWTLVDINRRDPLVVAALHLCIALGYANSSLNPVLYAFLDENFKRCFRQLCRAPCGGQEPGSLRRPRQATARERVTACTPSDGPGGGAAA
Experimental: as §1, §2

[4] = molecular target: T3, delta receptors, mouse brain membranes (Mus musculus, UniProt P32300); test: GTP[γ]35S binding functional assay, homogenised mouse brain; format: biochemical
T3 construct: from tissue; host or cells: mouse brain homogenate
T3 sequence (P32300 whole entry): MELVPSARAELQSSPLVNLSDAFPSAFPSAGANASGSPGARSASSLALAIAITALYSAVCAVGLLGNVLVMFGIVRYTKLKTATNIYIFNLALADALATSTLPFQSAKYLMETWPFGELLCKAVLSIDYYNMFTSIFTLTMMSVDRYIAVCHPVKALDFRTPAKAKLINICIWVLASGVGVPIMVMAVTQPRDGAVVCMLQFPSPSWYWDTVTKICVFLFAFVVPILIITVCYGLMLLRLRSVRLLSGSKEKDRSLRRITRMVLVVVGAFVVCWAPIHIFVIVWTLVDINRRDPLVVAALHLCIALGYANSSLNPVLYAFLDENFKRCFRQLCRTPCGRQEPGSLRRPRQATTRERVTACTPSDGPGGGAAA
Experimental: as §1, §2

SMILES | IC50 [1] | EC50 [2] | Emax [2] | EC50 [3] | Emax [3] | EC50 [4] | Emax [4]
CCN(CC)C(=O)c1ccc(C(=C2CCN(Cc3ccccc3)CC2)c2cccc(C(N)=O)c2)cc1 [3b, N,N-Diethyl-4-[1-benzylpiperidin-4-ylidene(3-carbamoylphenyl)-methyl]-benzamide] | 0.548 nM | 0.091 nM | 93.8% | 0.403 nM | 179% | 0.539 nM | 165%
CCN(CC)C(=O)c1ccc(C(=C2CCN(Cc3cccs3)CC2)c2cccc(C(N)=O)c2)cc1 [5a] | 0.373 nM | 0.158 nM | 98.1% | 0.613 nM | 181% | 0.818 nM | 170%
CCN(CC)C(=O)c1ccc(C(=C2CCN(Cc3ccco3)CC2)c2cccc(C(N)=O)c2)cc1 [5b] | 0.282 nM | – | – | 0.633 nM | 149% | – | –
CCN(CC)C(=O)c1ccc(C(=C2CCN(Cc3ccoc3)CC2)c2cccc(C(N)=O)c2)cc1 [5c] | 0.246 nM | – | – | 0.367 nM | 170% | – | –
CCN(CC)C(=O)c1ccc(C(=C2CCN(Cc3ccccn3)CC2)c2cccc(C(N)=O)c2)cc1 [5d, N,N-Diethyl-4-[1-(2-pyridine)methyl-piperidin-4-ylidene-(3-carbamoylphenyl)-methyl]-benzamide] | 0.278 nM | – | – | 0.396 nM | 180% | – | –
CCN(CC)C(=O)c1ccc(C(=C2CCN(Cc3ccsc3)CC2)c2cccc(C(N)=O)c2)cc1 [5e, N,N-Diethyl-4-[1-(3-thiophene)methyl-piperidin-4-ylidene-(3-carbamoylphenyl)-methyl]-benzamide] | 0.235 nM | – | – | – | – | – | –
